# Legend:
# Assay in all cases: cells
# CTV-1 = type: functional, cell-based, Homo sapiens; conditions: Homo sapiens, CTV-1;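 note: growth inhibition of the cell line, read out with a cell viability assay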
# Description: SANGER: Inhibition of human CTV-1 cell growth in a cell viability assay.
# CW-2 = type: functional, cell-based, Homo sapiens; conditions: Homo sapiens, CW-2;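 note: growth inhibition of CW-2 cells, read out by a cell viability assay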
# Description: SANGER: Inhibition of human CW-2 cell growth in a cell viability assay.
# DB = type: functional, cell-based, Homo sapiens; conditions: Homo sapiens, DB
# Description: SANGER: Inhibition of human DB cell growth in a cell viability assay.
# DOHH-2 = type: functional, cell-based, Homo sapiens; conditions: Homo sapiens, DOHH-2;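 note: growth inhibition of human DOHH-2 cells, read out with a cell viability assay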
# Description: SANGER: Inhibition of human DOHH-2 cell growth in a cell viability assay.
# EKVX = type: functional, cell-based, Homo sapiens; conditions: Homo sapiens, EKVX;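 note: growth inhibition of human EKVX cells, read out with a cell viability assay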
# Description: SANGER: Inhibition of human EKVX cell growth in a cell viability assay.
# ES6 = type: functional, cell-based, Homo sapiens; conditions: Homo sapiens, ES6;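 note: growth inhibition of human ES6 cells, read out with a cell viability assay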
# Description: SANGER: Inhibition of human ES6 cell growth in a cell viability assay.
# ETK-1 = type: functional, cell-based, Homo sapiens; conditions: Homo sapiens, ETK-1;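 note: growth inhibition of human ETK-1 cells, read out with a cell viability assay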
# Description: SANGER: Inhibition of human ETK-1 cell growth in a cell viability assay.
# EW-18 = type: functional, cell-based, Homo sapiens; conditions: Homo sapiens, EW-18;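 note: growth inhibition of EW-18 cells, read out by a cell viability assay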
# Description: SANGER: Inhibition of human EW-18 cell growth in a cell viability assay.
# EOL1 = type: functional, cell-based, Homo sapiens; conditions: Homo sapiens, EOL1;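 note: growth inhibition of EoL-1 cells, read out by a cell viability assay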
# Description: SANGER: Inhibition of human EoL-1-cell cell growth in a cell viability assay.
# GCIY = type: functional, cell-based, Homo sapiens; conditions: Homo sapiens, GCIY;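 note: growth inhibition of the human GCIY cell line, read out by a cell viability assay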
# Description: SANGER: Inhibition of human GCIY cell growth in a cell viability assay.
# HT-144 = type: functional, cell-based, Homo sapiens; conditions: Homo sapiens, HT-144
# Description: SANGER: Inhibition of human HT-144 cell growth in a cell viability assay.
# IST-MEL1 = type: functional, cell-based, Homo sapiens; conditions: Homo sapiens, IST-MEL1;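 note: growth inhibition of the cell line, read out with a cell viability assay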
# Description: SANGER: Inhibition of human IST-MEL1 cell growth in a cell viability assay.
# JVM-3 = type: functional, cell-based, Homo sapiens; conditions: Homo sapiens, JVM-3;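 note: growth inhibition of human JVM-3 cells, read out with a cell viability assay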
# Description: SANGER: Inhibition of human JVM-3 cell growth in a cell viability assay.
# KGN = type: functional, cell-based, Homo sapiens; conditions: Homo sapiens, KGN;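 note: growth inhibition of KGN cells, read out with a cell viability assay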
# Description: SANGER: Inhibition of human KGN cell growth in a cell viability assay.
# KM12 = type: functional, cell-based, Homo sapiens; conditions: Homo sapiens, KM12;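 note: KM12 cell growth inhibition, read out with a cell viability assay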
# Description: SANGER: Inhibition of human KM12 cell growth in a cell viability assay.
# KNS-42 = type: functional, cell-based, Homo sapiens; conditions: Homo sapiens, KNS-42;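 note: growth inhibition of KNS-42 cells, read out with a cell viability assay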
# Description: SANGER: Inhibition of human KNS-42 cell growth in a cell viability assay.
# KY821 = type: functional, cell-based, Homo sapiens; conditions: Homo sapiens, KY821;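 note: growth inhibition of human KY821 cells, read out by a cell viability assay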
# Description: SANGER: Inhibition of human KY821 cell growth in a cell viability assay.
# LB2241-RCC = type: functional, cell-based, Homo sapiens; conditions: Homo sapiens, LB2241-RCC;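 note: cell viability assay measuring how strongly the cultured human renal carcinoma line is prevented from growing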
# Description: SANGER: Inhibition of human LB2241-RCC cell growth in a cell viability assay.
# Lu-65 = type: functional, cell-based, Homo sapiens; conditions: Homo sapiens, Lu-65;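 note: growth inhibition of Lu-65 cancer cells, read out by a cell viability assay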
# Description: SANGER: Inhibition of human LU-65 cell growth in a cell viability assay.
# MEG-01 = type: functional, cell-based, Homo sapiens; conditions: Homo sapiens, MEG-01;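 note: growth inhibition of MEG-01 cells, read out by a cell viability assay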
# Description: SANGER: Inhibition of human MEG-01 cell growth in a cell viability assay.
# MHH-PREB-1 = type: functional, cell-based, Homo sapiens; conditions: Homo sapiens, MHH-PREB-1;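 note: cell viability assay measuring inhibition of proliferation of human MHH-PREB-1 cells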
# Description: SANGER: Inhibition of human MHH-PREB-1 cell growth in a cell viability assay.
# MN-60 = type: functional, cell-based, Homo sapiens; conditions: Homo sapiens, MN-60;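 note: growth inhibition of the MN-60 cell line, determined with a cell viability assay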
# Description: SANGER: Inhibition of human MN-60 cell growth in a cell viability assay.
# MOLT-4 = type: functional, cell-based, Homo sapiens; conditions: Homo sapiens, MOLT-4;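 note: growth inhibition of MOLT-4 cells, determined with a cell viability readout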
# Description: SANGER: Inhibition of human MOLT-4 cell growth in a cell viability assay.
# MS-1 = type: functional, cell-based, Homo sapiens; conditions: Homo sapiens, MS-1;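 note: growth inhibition of MS-1 cells, read out by cell viability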
# Description: SANGER: Inhibition of human MS-1 cell growth in a cell viability assay.
# MV4-11 = type: functional, cell-based, Homo sapiens, MV-4-11; conditions: Homo sapiens, MV4-11;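 note: cell viability readout measuring growth inhibition of human MV-4-11 cells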
# Description: SANGER: Inhibition of human MV-4-11 cell growth in a cell viability assay.
# MZ1-PC = type: functional, cell-based, Homo sapiens; conditions: Homo sapiens, MZ1-PC;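 note: cell viability assay measuring growth inhibition of human MZ1-PC cells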
# Description: SANGER: Inhibition of human MZ1-PC cell growth in a cell viability assay.
# NB5 = type: functional, cell-based, Homo sapiens; conditions: Homo sapiens, NB5;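 note: growth inhibition of NB5 cells, read out as cell viability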
# Description: SANGER: Inhibition of human NB5 cell growth in a cell viability assay.
# NB6 = type: functional, cell-based, Homo sapiens; conditions: Homo sapiens, NB6;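 note: growth inhibition of NB6 cells, read out by a cell viability assay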
# Description: SANGER: Inhibition of human NB6 cell growth in a cell viability assay.
# NCI-H1092 = type: functional, cell-based, Homo sapiens; conditions: Homo sapiens, NCI-H1092;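 note: cell growth inhibition measured with a cell viability assay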
# Description: SANGER: Inhibition of human NCI-H1092 cell growth in a cell viability assay.
# NCI-H1155 = type: functional, cell-based, Homo sapiens; conditions: Homo sapiens, NCI-H1155;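 note: cell growth inhibition measured by a viability assay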
# Description: SANGER: Inhibition of human NCI-H1155 cell growth in a cell viability assay.
# NEC8 = type: functional, cell-based, Homo sapiens; conditions: Homo sapiens, NEC8;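 note: growth inhibition of human NEC8 cells, read out by a cell viability assay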
# Description: SANGER: Inhibition of human NEC8 cell growth in a cell viability assay.
# NKM-1 = type: functional, cell-based, Homo sapiens; conditions: Homo sapiens, NKM-1;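 note: growth inhibition of NKM-1 cells, read out with a cell viability assay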
# Description: SANGER: Inhibition of human NKM-1 cell growth in a cell viability assay.
# NOMO-1 = type: functional, cell-based, Homo sapiens; conditions: Homo sapiens, NOMO-1;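 note: growth inhibition of human NOMO-1 cells measured by a cell viability assay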
# Description: SANGER: Inhibition of human NOMO-1 cell growth in a cell viability assay.
# OMC-1 = type: functional, cell-based, Homo sapiens; conditions: Homo sapiens, OMC-1;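 note: growth inhibition of the OMC-1 cell line, measured by a cell viability assay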
# Description: SANGER: Inhibition of human OMC-1 cell growth in a cell viability assay.
# RKO = type: functional, cell-based, Homo sapiens; conditions: Homo sapiens, RKO;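 note: growth inhibition of human RKO cells, read out with a cell viability assay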
# Description: SANGER: Inhibition of human RKO cell growth in a cell viability assay.
# RXF 393 = type: functional, cell-based, Homo sapiens; conditions: Homo sapiens, RXF 393;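 note: growth inhibition of human RXF 393 cells, read out with a cell viability assay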
# Description: SANGER: Inhibition of human RXF393 cell growth in a cell viability assay.
# SF-268 = type: functional, cell-based, Homo sapiens; conditions: Homo sapiens, SF-268;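 note: growth inhibition of SF-268 cells determined with a cell viability assay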
# Description: SANGER: Inhibition of human SF268 cell growth in a cell viability assay.
# SK-N-FI = type: functional, cell-based, Homo sapiens; conditions: Homo sapiens, SK-N-FI;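 note: cell viability assay measuring growth inhibition of human SK-N-FI cells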
# Description: SANGER: Inhibition of human SK-N-FI cell growth in a cell viability assay.
# SW684 = type: functional, cell-based, Homo sapiens; conditions: Homo sapiens, SW684;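 note: growth inhibition of human SW684 cells, measured by a cell viability assay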
# Description: SANGER: Inhibition of human SW684 cell growth in a cell viability assay.
# SW982 = type: functional, cell-based, Homo sapiens; conditions: Homo sapiens, SW982;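 note: growth inhibition of SW982 cells, read out with a cell viability assay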
# Description: SANGER: Inhibition of human SW982 cell growth in a cell viability assay.
# 8-MG-BA = type: functional, cell-based, Homo sapiens; conditions: Homo sapiens, 8-MG-BA;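 note: growth inhibition of 8-MG-BA cells, read out with a cell viability assay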
# Description: SANGER: Inhibition of human 8-MG-BA cell growth in a cell viability assay.
# BB65-RCC = type: functional, cell-based, Homo sapiens; conditions: Homo sapiens, BB65-RCC;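 note: growth inhibition of the cell line, measured with a cell viability assay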
# Description: SANGER: Inhibition of human BB65-RCC cell growth in a cell viability assay.
# BT-474 = type: functional, cell-based, Homo sapiens; conditions: Homo sapiens, BT-474
# Description: SANGER: Inhibition of human BT-474 cell growth in a cell viability assay.
# TE-12 = type: functional, cell-based, Homo sapiens; conditions: Homo sapiens, TE-12;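 note: growth inhibition of TE-12 cells, read out by a cell viability assay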
# Description: SANGER: Inhibition of human TE-12 cell growth in a cell viability assay.
# TGBC24TKB = type: functional, cell-based, Homo sapiens; conditions: Homo sapiens, TGBC24TKB;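 note: growth inhibition of human TGBC24TKB cells, read out with a cell viability assay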
# Description: SANGER: Inhibition of human TGBC24TKB cell growth in a cell viability assay.
# TGW = type: functional, cell-based, Homo sapiens; conditions: Homo sapiens, TGW;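 note: growth inhibition of human TGW cells, read out with a cell viability assay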
# Description: SANGER: Inhibition of human TGW cell growth in a cell viability assay.
# no-10 = type: functional, cell-based, Homo sapiens; conditions: Homo sapiens;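 note: growth inhibition of no-10 cells, read out with a cell viability assay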
# Description: SANGER: Inhibition of human no-10 cell growth in a cell viability assay.
# COLO-668 = type: functional, cell-based, Homo sapiens; conditions: Homo sapiens, COLO-668
# Description: SANGER: Inhibition of human COLO-668 cell growth in a cell viability assay.
compound,measurement,setting,value
CCN(CC)CCCCNc1ncc2cc(-c3cc(OC)cc(OC)c3)c(NC(=O)NC(C)(C)C)nc2n1 [PD-173074],IC50,CTV-1,> 2 µM
same,IC50,CW-2,> 2 µM
same,IC50,DB,> 2 µM
same,IC50,DOHH-2,> 2 µM
same,IC50,EKVX,> 2 µM
same,IC50,ES6,> 2 µM
same,IC50,ETK-1,> 2 µM
same,IC50,EW-18,> 2 µM
same,IC50,EOL1,0.33 µM
same,IC50,GCIY,> 2 µM
same,IC50,HT-144,> 2 µM
same,IC50,IST-MEL1,> 2 µM
same,IC50,JVM-3,> 2 µM
same,IC50,KGN,> 2 µM
same,IC50,KM12,> 2 µM
same,IC50,KNS-42,> 2 µM
same,IC50,KY821,> 2 µM
same,IC50,LB2241-RCC,> 2 µM
same,IC50,Lu-65,> 2 µM
same,IC50,MEG-01,> 2 µM
same,IC50,MHH-PREB-1,> 2 µM
same,IC50,MN-60,> 2 µM
same,IC50,MOLT-4,> 2 µM
same,IC50,MS-1,> 2 µM
same,IC50,MV4-11,> 2 µM
same,IC50,MZ1-PC,> 2 µM
same,IC50,NB5,> 2 µM
same,IC50,NB6,> 2 µM
same,IC50,NCI-H1092,> 2 µM
same,IC50,NCI-H1155,> 2 µM
same,IC50,NEC8,0.563 µM
same,IC50,NKM-1,> 2 µM
same,IC50,NOMO-1,> 2 µM
same,IC50,OMC-1,> 2 µM
same,IC50,RKO,> 2 µM
same,IC50,RXF 393,> 2 µM
same,IC50,SF-268,> 2 µM
same,IC50,SK-N-FI,> 2 µM
same,IC50,SW684,> 2 µM
same,IC50,SW982,> 2 µM
same,IC50,8-MG-BA,> 2 µM
same,IC50,BB65-RCC,> 2 µM
same,IC50,BT-474,> 2 µM
same,IC50,TE-12,> 2 µM
same,IC50,TGBC24TKB,> 2 µM
same,IC50,TGW,> 2 µM
same,IC50,no-10,> 2 µM
same,IC50,COLO-668,> 2 µM
Cn1cnc2c(F)c(Nc3ccc(Br)cc3Cl)c(C(=O)NOCCO)cc21 [SELUMETINIB],IC50,CTV-1,> 4 µM
same,IC50,CW-2,> 4 µM
same,IC50,DB,> 4 µM
same,IC50,DOHH-2,> 4 µM
same,IC50,EKVX,> 4 µM
same,IC50,ES6,> 4 µM
same,IC50,ETK-1,> 4 µM
same,IC50,EW-18,> 4 µM
same,IC50,EOL1,0.145 µM
same,IC50,GCIY,> 4 µM
same,IC50,HT-144,0.089 µM
same,IC50,IST-MEL1,> 4 µM
same,IC50,JVM-3,0.701 µM
same,IC50,KGN,> 4 µM
same,IC50,KM12,2.54 µM
same,IC50,KNS-42,> 4 µM
same,IC50,KY821,0.107 µM
same,IC50,LB2241-RCC,0.79 µM
same,IC50,Lu-65,> 4 µM
same,IC50,MEG-01,1.63 µM
same,IC50,MHH-PREB-1,> 4 µM
same,IC50,MN-60,> 4 µM
same,IC50,MOLT-4,> 4 µM
same,IC50,MS-1,> 4 µM
same,IC50,MV4-11,0.575 µM
same,IC50,MZ1-PC,3.32 µM
same,IC50,NB5,2.57 µM
same,IC50,NB6,> 4 µM
same,IC50,NCI-H1092,> 4 µM
same,IC50,NCI-H1155,> 4 µM
same,IC50,NEC8,> 4 µM
same,IC50,NKM-1,0.386 µM
same,IC50,NOMO-1,0.032 µM
same,IC50,OMC-1,> 4 µM
same,IC50,RKO,0.248 µM
same,IC50,RXF 393,> 4 µM
same,IC50,SF-268,> 4 µM
same,IC50,SK-N-FI,> 4 µM
same,IC50,SW684,> 4 µM
same,IC50,SW982,> 4 µM
same,IC50,8-MG-BA,> 4 µM
same,IC50,BB65-RCC,1.84 µM
same,IC50,BT-474,> 4 µM
same,IC50,TE-12,> 4 µM
same,IC50,TGBC24TKB,> 4 µM
same,IC50,TGW,> 4 µM
same,IC50,no-10,> 4 µM
same,IC50,COLO-668,> 4 µM
